Values after ≈ are worked out from the molar mass of the structure shown. Values joined by “and” are separate entries in the source; they are usually repeats but may differ in a detail not shown here. Equal values may be shown once.
Tests used:
Assay in all cases: ≥ marks a high value that may be exact or a test limit, other limits are often not marked, values filed in µg/mL are converted to µM
[1] = test system: Escherichia coli ATCC 25922
[2] = test system: Staphylococcus aureus ATCC 25923
[3] = test system: Staphylococcus aureus ATCC 29213
Staphylococcus aureus = test system: Staphylococcus aureus
[4] = test system: Pseudomonas aeruginosa ATCC 27853
Escherichia coli = test system: Escherichia coli
Pseudomonas aeruginosa = test system: Pseudomonas aeruginosa

| MIC [1] | MIC [2] | MIC [4] | SMILES | other results |
| --- | --- | --- | --- | --- |
| 24.6 µM (≈ 31.9 µg/mL) | 49 µM (≈ 63.6 µg/mL) | – | CC(C)C[C@H](NC(=O)CNC(=O)[C@H](CCCCN)NC(=O)CNC(=O)[C@H](C)NC(=O)[C@H](C)N)C(=O)N[C@H](C(=O)N[C@@H](CO)C(=O)N[C@@H](CC(N)=O)C(=O)N[C@@H](CC(C)C)C(=O)N[C@@H](CC(C)C)C(=O)N[C@@H](CCC(=O)O)C(=O)N[C@@H](CCCCN)C(N)=O)C(C)C [AAGKGLVSNLLEK] | – |
| > 100 µM | > 100 µM | – | CC[C@H](C)[C@H](NC(=O)[C@@H](N)Cc1ccccc1)C(=O)N[C@@H](CCCN=C(N)N)C(=O)N[C@@H](CO)C(=O)N[C@@H](CC(C)C)C(=O)N[C@@H](Cc1ccccc1)C(=O)N[C@@H](Cc1ccccc1)C(=O)N[C@@H](Cc1ccccc1)C(N)=O [FIRSLFFF] | – |
| 10 µM (≈ 16.6 µg/mL) | – | – | CC[C@H](C)[C@H](NC(=O)[C@H](CCCN=C(N)N)NC(=O)[C@H](CCC(N)=O)NC(=O)[C@@H](NC(=O)CNC(=O)[C@H](CCCN=C(N)N)NC(=O)[C@H](CCCCN)NC(=O)[C@@H](N)Cc1ccccc1)C(C)C)C(=O)N[C@@H](CCCCN)C(=O)N[C@@H](CC(=O)O)C(=O)N[C@@H](Cc1ccccc1)C(=O)N[C@@H](CC(C)C)C(=O)N[C@@H](CCCN=C(N)N)C(=O)O [FKRGVQRIKDFLR] | MIC [3]: > 40 µM |
| 13.9 µM and 27.8 µM | – | – | CC(C)C[C@H](NC(=O)[C@H](CC(C)C)NC(=O)[C@H](CCCCN)NC(=O)[C@H](CCCCN)NC(=O)[C@H](CC(C)C)NC(=O)[C@H](Cc1ccccc1)NC(=O)[C@H](CCCCN)NC(=O)[C@H](CC(C)C)NC(=O)[C@@H](N)Cc1ccccc1)C(N)=O [FLKFLKKLL] | – |
| – | 14.3 µM (≈ 16 µg/mL) | – | CC[C@H](C)[C@H](NC(=O)[C@H](CCCCN)NC(=O)[C@H](CC(C)C)NC(=O)[C@@H](N)Cc1ccccc1)C(=O)N[C@@H](CC(C)C)C(=O)N[C@@H](CCCCN)C(=O)N[C@@H](CCCCN)C(=O)N[C@@H](CC(C)C)C(=O)N[C@@H](CC(C)C)C(N)=O [FLKILKKLL] | – |
| – | – | – | CC[C@H](C)[C@H](NC(=O)[C@@H]1CCCN1C(=O)[C@H](CC(C)C)NC(=O)[C@@H](N)Cc1ccccc1)C(=O)N[C@@H](C)C(=O)N[C@@H](CO)C(=O)N[C@@H](CC(C)C)C(=O)N[C@@H](CC(C)C)C(=O)NCC(=O)N[C@@H](CCCCN)C(=O)N[C@@H](Cc1ccc(O)cc1)C(=O)N[C@@H](CC(C)C)C(=O)O [FLPIASLLGKYL] | MIC (Staphylococcus aureus): > 200 µM |
| 6 µM (≈ 9.9 µg/mL) | 3 µM (≈ 4.95 µg/mL) | – | CC(C)[C@H](NC(=O)[C@H](CCCN=C(N)N)NC(=O)[C@@H](N)Cc1ccccc1)C(=O)N[C@H](C(=O)N[C@@H](Cc1c[nH]c2ccccc12)C(=O)N[C@@H](CCCN=C(N)N)C(=O)N[C@H](C(=O)N[C@@H](CCCCN)C(=O)N[C@@H](Cc1c[nH]c2ccccc12)C(=O)N[C@@H](Cc1c[nH]c2ccccc12)C(=O)N[C@@H](CCCCN)C(=O)NCC(N)=O)[C@@H](C)O)[C@@H](C)O [FRVTWRTKWWKG] | – |
| – | 5.6 µM (≈ 11.9 µg/mL) | 11.2 µM (≈ 23.9 µg/mL) | CC[C@H](C)[C@H](NC(=O)CN)C(=O)NCC(=O)N[C@@H](C)C(=O)N[C@H](C(=O)N[C@@H](CC(C)C)C(=O)N[C@@H](CCCCN)C(=O)N[C@H](C(=O)N[C@@H](CC(C)C)C(=O)N[C@@H](C)C(=O)N[C@@H](CC(C)C)C(=O)N[C@H](C(=O)N[C@@H](CO)C(=O)N[C@@H](Cc1c[nH]c2ccccc12)C(=O)N[C@H](C(=O)N[C@@H](CCCCN)C(=O)N[C@@H](CCCN=C(N)N)C(=O)N[C@@H](CCCCN)C(=O)N[C@@H](CCCN=C(N)N)C(N)=O)[C@@H](C)CC)[C@@H](C)CC)C(C)C)C(C)C [GIGAVLKVLALISWIKRKR] | MIC (Escherichia coli): 11.2 µM (≈ 23.9 µg/mL) |
| 160 µM (≈ 293 µg/mL) | – | 80 µM (≈ 147 µg/mL) | NCC(=O)N[C@@H](CCCN=C(N)N)C(=O)N[C@@H](CCCN=C(N)N)C(=O)N1CCC[C@H]1C(=O)N[C@@H](CCCN=C(N)N)C(=O)N1CCC[C@H]1C(=O)N[C@@H](CCCN=C(N)N)C(=O)N1CCC[C@H]1C(=O)N[C@@H](CCCN=C(N)N)C(=O)N1CCC[C@H]1C(=O)N[C@@H](Cc1ccccc1)C(=O)N[C@@H](Cc1ccccc1)C(=O)N[C@@H](Cc1ccccc1)C(=O)N[C@@H](Cc1ccccc1)C(=O)O [GRRPRPRPRPFFFF] | MIC [3]: 40 µM (≈ 73.3 µg/mL) |
| > 70 µM | > 70 µM | – | CC[C@H](C)[C@H](NC(=O)[C@H](CCCN=C(N)N)NC(=O)[C@@H](N)CCCCN)C(=O)N[C@@H](CCCCN)C(=O)N[C@H](C(=O)N[C@@H](CC(C)C)C(=O)N[C@@H](CC(C)C)C(N)=O)[C@@H](C)O [KRIKTLL] | – |
| – | – | – | CC[C@H](C)[C@H](NC(=O)[C@H](Cc1ccccc1)NC(=O)[C@H](CO)NC(=O)[C@H](CCCCN)NC(=O)[C@H](Cc1c[nH]c2ccccc12)NC(=O)[C@@H](N)CCCCN)C(=O)N[C@@H](CCCCN)C(=O)N[C@@H](CCCCN)C(=O)N[C@@H](CC(C)C)C(=O)N[C@@H](C)C(=O)N[C@@H](CO)C(=O)N[C@@H](CCCCN)C(=O)N[C@@H](Cc1ccccc1)C(=O)N[C@@H](CC(C)C)C(=O)N[C@@H](Cc1cnc[nH]1)C(=O)N[C@@H](CO)C(=O)N[C@@H](C)C(=O)N[C@@H](CCCCN)C(=O)N[C@@H](CCCCN)C(=O)N[C@@H](Cc1ccccc1)C(N)=O [KWKSFIKKLASKFLHSAKKF] | MIC (Pseudomonas aeruginosa): 5.16 µM (≈ 12.5 µg/mL) |
| 131 µM (≈ 256 µg/mL) | – | > 131 µM | CC[C@H](C)[C@H](NC(=O)[C@H](CCSC)NC(=O)[C@H](C)NC(=O)[C@@H]1CCCN1C(=O)[C@@H](NC(=O)[C@@H](NC(=O)[C@H](CCCCN)NC(=O)[C@@H](NC(=O)[C@H](CC(C)C)NC(=O)CNC(=O)CNC(=O)[C@@H](N)CC(C)C)[C@@H](C)CC)[C@@H](C)CC)C(C)C)C(=O)N[C@H]1CSSC[C@@H](C(=O)O)NC(=O)[C@H](CCCCN)NC(=O)[C@H](CCCCN)NC(=O)[C@H]([C@@H](C)O)NC(=O)[C@H](C(C)C)NC(=O)[C@H](C)NC1=O [LGGLIKIVPAMICAVTKKC] | MIC [3]: 131 µM (≈ 256 µg/mL) |
| > 55.3 µM | – | > 55.3 µM | CC[C@H](C)[C@H](NC(=O)[C@H](CCCCN)NC(=O)[C@H](CCCCN)NC(=O)[C@@H](N)CCC(N)=O)C(=O)N[C@@H](CCCN=C(N)N)C(=O)N[C@H](C(=O)N[C@@H](CCCN=C(N)N)C(=O)N[C@@H](C)C(=O)N[C@@H](CO)C(=O)N[C@@H](C)C(=O)O)C(C)C [QKKIRVRASA] | MIC [3]: > 55.3 µM |
| 13.5 µM (≈ 16 µg/mL) | – | 13.5 µM (≈ 16 µg/mL) | CC[C@H](C)[C@H](NC(=O)[C@H](CCCCN)NC(=O)[C@H](CCCCN)NC(=O)[C@@H](N)CCC(N)=O)C(=O)N[C@@H](CCCN=C(N)N)C(=O)N[C@H](C(=O)N[C@@H](CCCN=C(N)N)C(=O)N[C@@H](CC(C)C)C(=O)N[C@@H](C)C(=O)N[C@@H](C)C(=O)O)C(C)C [QKKIRVRLAA] | MIC [3]: > 54.1 µM |
| 412 µM (≈ 500 µg/mL) | – | – | CC(C)[C@H](NC(=O)[C@H](Cc1c[nH]c2ccccc12)NC(=O)[C@H](C)NC(=O)[C@@H](N)CCCN=C(N)N)C(=O)N[C@@H](C)C(=O)N[C@@H](Cc1c[nH]c2ccccc12)C(=O)N[C@@H](CCCN=C(N)N)C(=O)N[C@@H](CC(N)=O)C(=O)N[C@@H](CCCN=C(N)N)C(N)=O [RAWVAWRNR] | MIC [3]: 206 µM (≈ 250 µg/mL) |
| > 100 µM | – | > 100 µM | CSCC[C@H](NC(=O)[C@H](CCCCN)NC(=O)[C@H](CCCCN)NC(=O)[C@H](CCCCN)NC(=O)[C@@H](N)CCCN=C(N)N)C(=O)N[C@@H](CCCCN)C(=O)N[C@@H](CCCCN)C(=O)N[C@@H](C)C(=O)N[C@@H](CC(C)C)C(=O)N[C@@H](CCC(N)=O)C(=O)N[C@@H](Cc1ccc(O)cc1)C(N)=O [RKKKMKKALQY] | – |
| – | – | – | CC[C@H](C)[C@H](NC(=O)[C@H](CC(C)C)NC(=O)[C@@H](NC(=O)[C@H](CC(C)C)NC(=O)[C@H](CO)NC(=O)[C@H](CCCCN)NC(=O)[C@@H](NC(=O)[C@H](CC(C)C)NC(=O)[C@H](CCCCN)NC(=O)[C@H](CC(C)C)NC(=O)[C@H](CO)NC(=O)[C@H](CCCN=C(N)N)NC(=O)[C@H](CCCCN)NC(=O)[C@@H](NC(=O)[C@H](Cc1ccccc1)NC(=O)[C@@H](N)CO)[C@@H](C)CC)[C@@H](C)CC)C(C)C)C(=O)N[C@@H](CCCCN)C(=O)O [SFIKRSLKLIKSLVLIK] | MIC (Staphylococcus aureus): 4 µM (≈ 7.95 µg/mL) |
| 16 µM (≈ 28.6 µg/mL) | – | – | CC(C)C[C@H](NC(=O)[C@H](Cc1ccccc1)NC(=O)[C@@H]1CCCN1C(=O)[C@H](Cc1c[nH]c2ccccc12)NC(=O)[C@H](Cc1c[nH]c2ccccc12)NC(=O)[C@H](Cc1c[nH]c2ccccc12)NC(=O)[C@@H]1CCCN1C(=O)[C@H](Cc1ccccc1)NC(=O)[C@H](CCCCN)NC(=O)[C@H](CCCCN)NC(=O)[C@@H](N)C(C)C)C(=O)N[C@@H](CCCCN)C(=O)N[C@@H](CCCCN)C(N)=O [VKKFPWWWPFLKK] | MIC (Staphylococcus aureus): 5.59 µM (≈ 9.99 µg/mL); MIC (Escherichia coli): 11.2 µM (≈ 20 µg/mL) |
| – | – | 32 µM (≈ 31 µg/mL) | CC(C)C[C@H](NC(=O)[C@H](CC(C)C)NC(=O)[C@H](CC(N)=O)NC(=O)[C@H](CCCCN)NC(=O)[C@H](CC(C)C)NC(=O)[C@H](CC(N)=O)NC(=O)[C@@H](N)C(C)C)C(=O)N[C@@H](CCCN=C(N)N)C(=O)O [VNLKNLLR] | – |
| 4 µM (≈ 7.51 µg/mL) | – | – | CC(C)C[C@H](NC(=O)[C@H](Cc1ccccc1)NC(=O)[C@@H]1CCCN1C(=O)[C@H](Cc1ccc(O)cc1)NC(=O)[C@H](Cc1c[nH]c2ccccc12)NC(=O)[C@H](Cc1c[nH]c2ccccc12)NC(=O)[C@@H]1CCCN1C(=O)[C@H](Cc1ccccc1)NC(=O)[C@H](CCCN=C(N)N)NC(=O)[C@H](CCCN=C(N)N)NC(=O)[C@@H](N)C(C)C)C(=O)N[C@@H](CCCN=C(N)N)C(=O)N[C@@H](CCCN=C(N)N)C(N)=O [VRRFPWWYPFLRR] | – |
| 115 µM (≈ 99.9 µg/mL) | 57.7 µM (≈ 49.9 µg/mL) | – | NC(=O)[C@H](Cc1c[nH]c2ccccc12)NC(=O)[C@H](CCCN=C(N)N)NC(=O)[C@H](Cc1ccc(O)cc1)NC(=O)[C@H](CCCN=C(N)N)NC(=O)[C@@H](N)Cc1c[nH]c2ccccc12 [WRYRW] | – |

— DBAASP
